Reference: patent US20130178453A1, “Cannabinoid Agonists” (priority 2010, published 2013)
Read-outs that look alike come from different tables or passages of the source.

Legend:
[1] = target: T1, hCB1 (Homo sapiens, UniProt P21554); assay: hCB1 radioligand binding assay ([3H]-CP 55,940 displacement); details: HEK membranes
Source text: (§1) cDNA expression clones for human CB 1 (hCB1, Genbank Accession No. AY225225) and human CB2 (hCB2, Genbank Accession No. AY242132) expressed in vector pcDNA3.1+ were purchased from UMR cDNA Resource Center, Rolla, Mo. (Clone ID CNR01L000 for hCB1; CNR0200000 for hCB2).
Stable, HEK-293-derived cell lines that recombinantly express hCB1 or hCB2 were established. In brief, the clone hCB1 (CNR1L) or hCB2 (CNR2) was transfected into human embryonic kidney cells (HEK-293) using Lipofectamine 2000 (Gibco, Cat#11668-019) according to the manufacturer's protocol. Transfected clones were isolated by single colony purification and clones were screened for receptor expression using a whole cell, ^3H—CP 55,940 radioligand binding assay. HEK-293 stable cells were maintained in Dulbecco's modified Eagles medium (DMEM) containing 10% fetal bovine serum, 2 mM L-glutamine and 0.5 mg/mL G-418.
(§2) Membranes were isolated from transfected cells as follows. Monolayers of cultured cells were washed twice with phosphate-buffered saline (PBS). Cells were scraped into 20 mM HEPES, pH 7.4, 10 mM EDTA containing complete cocktail protease inhibitors (Roche, Catalog #11 697 498 001), and were homogenized by an electric-powered mechanical probe homogenizer (Omni GLH; probe G7-195S) for 40 seconds at 7000 rpm. Homogenates were centrifuged 10 minutes at 1000×g at 4° C. The supernatant was collected and was centrifuged for 1 hour at 40,000×g. The supernatant was then decanted and the resulting pellet was re-suspended in 20 mM HEPES, pH 7.4, 5 mM MgCl2, 1 mM EDTA, 10% sucrose with complete cocktail protease inhibitors. Protein concentration of membrane suspensions were measured by Bradford Protein Assay using bovine serum albumin as the standard (BioRad catalog #500-0006). Protein concentrations of membrane suspensions were adjusted with the final buffer in the range of 5 to 10 mg/mL and were stored at −80° C. until further use.
Radioligand binding assays were performed by incubating membranes (2-10 μg protein) prepared from HEK-293 cells expressing recombinant human cannabinoid receptors, CB 1 or CB2, at room temperature with 0.5 nM cannabinoid receptor agonist, [^3H]-CP 55,940 (Perkin Elmer, catalog #NET 1051) in 0.2 mL of binding buffer (50 mM Tris-HCl, pH 7.5, 5 mM MgCl2, 2.5 mM EDTA) and 0.1% fatty acid free bovine serum albumin (Sigma Cat. #A0821) for 90 minutes. A rapid filtration technique using Millipore FB filter plates (Catalog #MADVNOB) and filtration apparatus (Millipore system Catalog MAVM0960R) with vacuum aspiration was used to harvest and rinse labeled membranes (8 times with 0.2 mL of chilled binding buffer). The radioactivity bound to the filters was counted with 0.05 mL of liquid scintillant (UltraGold MV, PerkinElmer catalog #6013159) in a scintillation counter (Perkin Elmer Microbeta instrument). Nonspecific binding was determined in the presence of unlabeled 1 μM CP 55,940 (Sigma Aldrich, catalog #C1112). Binding data were analyzed using GraphPad Prism (GraphPad Software, Inc. San Diego, Calif.).

[2] = target: T2, hCB2 (Homo sapiens, UniProt P34972); assay: hCB2 radioligand binding assay ([3H]-CP 55,940 displacement); details: HEK membranes
Experimental: as §1
as §2, with “Cells were scraped into 20 mM HEPES, pH 7.4, 10 mM EDTA containing complete cocktail protease inhibitors (Roche, Catalog #11 697 498 001), and were homogenized by an electric-powered mechanical probe homogenizer (Omni GLH; probe G7-195S) for 40 seconds at 7000 rpm.” left out
A rapid filtration technique using Millipore FB filter plates (Catalog #MADVNOB) and filtration apparatus (Millipore system Catalog MAVM0960R) with vacuum aspiration was used to harvest and rinse labeled membranes (8 times with 0.2 mL of chilled binding buffer). […] Binding data were analyzed using GraphPad Prism (GraphPad Software, Inc. San Diego, Calif.).

[3] = target: T1, hCB1; assay: hCB1 cAMP agonist assay (HEK-293 cells); format: cell-based; details: cAMP agonist, HEK, 96-well
[4] = target: T2, hCB2; assay: hCB2 cAMP agonist assay (HEK-293 cells); format: cell-based
Experimental: as §1
cAMP assays were performed in HEK-293 cells stably expressing human CB 1 or CB2 receptors. […] Cells suspensions were centrifuged and the cells were washed once with PBS, were centrifuged again, and the cells were resuspended in HBSS (Hank's Balanced Salt Solution, Cellgro, Cat #21-022-CV) solution containing 10 mM HEPES and 0.1% fatty acid free BSA (Sigma, Cat #A0281). Cell suspensions were prepared at 1,500,000 cells per mL. Stock solutions of test substances (10 mM) in DMSO were diluted to 1 mM using 30% DMSO as diluent. Test substances of solutions (1 mM) were further diluted down to 3× of final assay concentrations in the above HBSS buffer containing 0.1% BSA in the presence of 90 uM forskolin (Sigma Cat#F6886). To perform the assay, 20 μL of cell suspension (1,500,000 cells/mL) were added to each well in 96 well plate and treated with 10 μL test substance solution diluted as described above. Cells and compounds were incubated at 37° C. for 30 minutes. Cells were lysed and cAMP concentration was measured using DiscoveRx-XS+ cAMP assay kit (DiscoveRx Corporation Ltd., Fremont, Calif., USA, Cat #90-0075-03), following the manufacturer's protocol. GraphPad Prism software was used to calculate EC50 values using sigmoidal dose response curve fitting. The maximal amount of cAMP produced by forskolin was defined as 100%.

[5] = target: T2, hCB2; assay: hCB2 GTPγS agonist assay (HEK-293 membranes); format: biochemical
Experimental: as §1
as §2, with “Cells were scraped into 20 mM HEPES, pH 7.4, 10 mM EDTA containing complete cocktail protease inhibitors (Roche, Catalog #11 697 498 001), and were homogenized by an electric-powered mechanical probe homogenizer (Omni GLH; probe G7-195S) for 40 seconds at 7000 rpm.” left out
^35S GTPγS binding assays were performed by incubating recombinant cell membranes prepared above (5 μg) in the presence of scintillation proximity assay beads (SPA beads, Catalog #RPNQ0252 GE Healthcare, Buckinghamshire, England) in GTPγS binding buffer [50 mM HEPES (pH 7.4), 100 mM NaCl, 5 mM MgCl2, 0.001% saponin (Sigma catalog #S4521)] supplemented with 20 uM GDP (Sigma catalog #G7127) in the presence or absence of test compound. The reaction was carried out in 96-well microplates with 0.1 nM [^35S]GTPγS (specific activity=1250 Ci/mmol; Perkin Elmer catalog #NEG030X250UC) in a final volume of 100 μL. After a 90 min room temperature incubation, the reaction was analyzed using a scintillation counter (Perkin Elmer Microbeta instrument). Binding data were analyzed using GraphPad Prism.

[6] = read-out: hCB1 IC50 (CP displ, nM, HEK)
[7] = read-out: hCB2 IC50 (CP displ, nM, HEK)
[8] = cAMP agonist, HEK, 96-well, read-out: hCB2 EC50 (cAMP ag, nM, HEK (96-well))
[9] = GTPγS agonist, HEK membranes, read-out: hCB2 EC50 (GTPyS ag, nM, HEK)

T2 sequence (P34972 whole entry): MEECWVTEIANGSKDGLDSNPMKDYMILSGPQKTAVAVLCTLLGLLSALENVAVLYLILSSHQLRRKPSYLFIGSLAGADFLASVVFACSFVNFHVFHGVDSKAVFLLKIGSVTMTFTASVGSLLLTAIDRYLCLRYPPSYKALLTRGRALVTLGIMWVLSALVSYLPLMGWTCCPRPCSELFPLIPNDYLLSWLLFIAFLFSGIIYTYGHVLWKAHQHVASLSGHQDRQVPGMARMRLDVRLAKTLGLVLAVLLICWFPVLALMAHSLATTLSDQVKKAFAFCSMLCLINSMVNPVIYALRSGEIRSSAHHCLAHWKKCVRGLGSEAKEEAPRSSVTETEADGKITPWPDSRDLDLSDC
T1 sequence (P21554 whole entry): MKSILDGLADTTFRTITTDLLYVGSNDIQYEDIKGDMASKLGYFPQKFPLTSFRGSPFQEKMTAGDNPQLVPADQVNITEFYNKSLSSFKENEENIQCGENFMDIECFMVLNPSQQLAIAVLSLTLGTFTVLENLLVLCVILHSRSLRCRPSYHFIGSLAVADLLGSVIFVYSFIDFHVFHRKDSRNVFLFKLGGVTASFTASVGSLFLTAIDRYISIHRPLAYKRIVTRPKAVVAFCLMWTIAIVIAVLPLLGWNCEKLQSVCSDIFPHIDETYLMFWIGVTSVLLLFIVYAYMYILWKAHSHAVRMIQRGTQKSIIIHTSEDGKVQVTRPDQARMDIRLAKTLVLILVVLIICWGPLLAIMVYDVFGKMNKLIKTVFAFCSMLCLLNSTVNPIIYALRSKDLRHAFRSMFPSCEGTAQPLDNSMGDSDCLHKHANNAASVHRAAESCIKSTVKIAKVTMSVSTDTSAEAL

Structure (SMILES) | IC50 [1, 6] [nM] | IC50 [2, 7] [nM] | hCB1 EC50 (cAMP ag, nM, HEK (96-well)) [3] | IC50 ([1]; hCB1 IC50 (CP displ, nM, HEK)) [nM] | EC50 [4, 8] [nM] | IC50 ([2]; hCB2 IC50 (CP displ, nM, HEK)) [nM] | EC50 [5, 9] [nM] | EC50 [4] [nM] | EC50 [5] [nM]
CCn1c(C(=O)c2c[nH]c3ccncc23)cc2ccsc21 [Compound I-39] | > 10000 | > 10000 | NS (“Not Significant,” which means less than 30% agonist activity when compared to the positive control) |  |  |  |  |  | 
CCn1c(C(=O)c2c[nH]c3cnccc23)cc2ccsc21 [Compound I-40] | > 10000 | > 10000 | NS (“Not Significant,” which means less than 30% agonist activity when compared to the positive control) |  |  |  |  |  | 
CCCn1c(C(=O)c2c[nH]c3ccncc23)cc2ccsc21 [Compound I-44] | > 10000 | > 10000 | NS (“Not Significant,” which means less than 30% agonist activity when compared to the positive control) |  |  |  |  |  | 
CCCn1c(C(=O)c2c(C)[nH]c3ccccc23)cc2ccsc21 [Compound I-51] |  |  | NS (“Not Significant,” which means less than 30% agonist activity when compared to the positive control) | > 10000 | 100 to 1000 | 100 to 1000 |  |  | 
CCCn1c(C(=O)c2c(C)n(S(=O)(=O)CC)c3ccccc23)cc2ccsc21 [Compound I-67] |  |  | NS (“Not Significant,” which means less than 30% agonist activity when compared to the positive control) | > 10000 | 100 to 1000 | 100 to 1000 |  |  | 
CCCn1c(C(=O)c2c(C)[nH]c3ccc(C)cc23)cc2ccsc21 [Compound I-68] |  |  | NS (“Not Significant,” which means less than 30% agonist activity when compared to the positive control) | > 10000 |  | 1000 to 10000 |  |  | 
CCCn1c(C(=O)c2c3c(n(CCN4CCOCC4)c2C)CCCC3)cc2ccsc21 [Compound I-79] |  |  |  | 100 to 1000 | < 100 | < 100 | < 100 |  | 
Cc1c(C(=O)c2cc3ccsc3[nH]2)c2ccccc2n1CCN1CCOCC1 [Compound I-82] |  |  |  | 1000 to 10000 |  | 100 to 1000 |  | 100 to 1000 | 100 to 1000
CCCn1c(C)c(C(=O)c2cc3ccsc3n2CC)c2c1CCCC2 [Compound I-85] |  |  |  | 1000 to 10000 |  | < 100 |  | < 100 | < 100
CCCn1c(C)c(C(=O)c2cc3ccsc3n2CC)c2c1CCCCC2 [Compound I-87] |  |  |  | 1000 to 10000 | < 100 | < 100 | < 100 |  | 
